This is an account of results in patent US20100120703A1, “COMPOSITIONS AND METHODS FOR TREATING CANCER” (priority 2007, published 2010).

The subject of experiment [1] is Sprague Dawley (SD) rats. In words: Serum AST/ALT assay, progression stage. Type of experiment: in vivo, rat. The protocol: ALT (Alanine aminotransferase) and AST (Aspartate aminotransferase) are two enzymes that are specifically located in the liver. These two enzymes normally distribute little in blood serum. When liver damage occurs, the hepatocytes break and these two enzymes are released into the blood. An AST/ALT assay was used to diagnose liver damage. Rat blood was collected in a 13 ml BD PLUS-SST II serum vacutainer and allowed to stand for 20 minutes on ice to coagulate. The vacutainer was then centrifuged at 3,500 rpm for 15 minutes. The upper layer serum was collected. The AST/ALT assay was performed within 2 days to minimize the loss of the enzymes.
The serum AST activity assay was measured by a Stanbio AST (UV-Rate) kit. Fifteen milliliters of ddH2O were added into one bottle of the reagent in the kit and mixed thoroughly according to the kit protocol. One milliliter of the reagent was incubated at 37° C. for at least 10 minutes for each reaction. […] Absorbance was measured at OD 340 nm. After incubation for 1 minute, a reading was taken and the reading at this point was counted as time zero. Readings were then taken at 30 second interval for 3 minutes. The change of absorbance per minute was calculated and the AST activity was calculated by the formula
The ALT assay was measured by a Stanbio […]. […]

In a further experiment the test system is human colon cancer cells. Conditions: cited from earlier work.
For experiment [2], the system named is Sprague Dawley (SD) rats. Nature of the experiment: DEN/CCl4-induced hepatoma in rats, promotion stage: liver observation and weight. Conditions: 15 mg/kg oral daily for 28 weeks. The experiment is classed as in vivo, rat. The protocol:
Sprague Dawley (SD) rats were used as the animal model in the in vivo experiments. Male SD rats (80-90 g body weight) were obtained from Laboratory Animal Services Center of The Chinese University of Hong Kong. The rats were housed in the rodent animal room with a 12 hour light-dark cycle and constant temperature of 25° C. Four rats were housed in each case. Food and water were given ad libitum. All the animals were observed and weighed daily.
The experiments were to induce hepatomas in rats. SIN was administered to the rats of treatment group at different stages. Chemical carcinogens were employed in the design of experiment to be able to induce hepatoma within a short time (Ha W. S. et al., 2001). Diethylnitrosamine (DEN) has been frequently used by other scientists to induce hepatoma. DEN administration in combined with CCl4 method was employed in the experiment to induce hepatoma in rats according to the established protocol (Kovalszky, I. et al., 1992).
Experiments of the promotion stage were to study the effect of SIN at the promotion stage of cancer development. Fifteen rats were randomly divided into 3 groups, a negative control group (5 rats), a positive control group (5 rats) and an SIN-treatment group (5 rats). […]
During the experiment, the body weight of the rat was monitored daily. […]

The test system of experiment [3] is Sprague Dawley (SD) rats. In words: DEN/CCl4-induced hepatoma in rats, progression stage: liver observation and weight. Conditions: 15 mg/kg oral daily for 24 weeks. The experiment is classed as in vivo, rat. An excerpt:
The effect of SIN on progression stage of cancer development was studied. FIG. 20 summarized the protocol applied to rats. The amounts of rats and grouping method were all the same as in the promotion stage experiment.
Rats in the negative control group received weekly intraperitoneal (i.p.) injection of DMSO for the first 2 weeks and then Corn Oil for 28 weeks. Rats in the positive control and SIN-treatment groups both received weekly intraperitoneal (i.p.) injection of DEN for the first 2 weeks and then CCl4 for 28 weeks. Two weeks of fasting were inserted between DEN treatment and CCl4 treatment. Starting from 33rd week, negative and positive control groups received oral administration of water once a day. Sinigrin with dosage 15 mg/kg was administered orally to the SIN-treatment group daily for 24 weeks. After treatment, the rats were killed. Blood and liver were collected and processed as described in the foregoing examples.

Consider `C=CC/C(=N/OS(=O)(=O)[O-])S[C@@H]1OC(CO)[C@@H](O)C(O)C1O.[K+]` (stereo partly shown) [SIN, sinigrin], for which the “rat serum ALT level” value in the experiment with Sprague Dawley (SD) rats [1] (positive control 215% of negative control) is given as “levels similar to those in the negative control”. The “rat serum AST level” value with Sprague Dawley (SD) rats [1] (positive control 265% of negative control) was “levels similar to those in the negative control”. For the same molecule, the “action on apoptosis and cell proliferation” value in the experiment on human colon cancer cells was “might be apoptosis- and cell proliferation-independent”. The “percentage of liver weight and liver weight index vs negative group” value with Sprague Dawley (SD) rats [2] and with Sprague Dawley (SD) rats [3] was “only slightly higher” each time. The results for the “visible tumors on liver (direct observation)” value in the experiment with Sprague Dawley (SD) rats [2] and in the experiment on Sprague Dawley (SD) rats [3] were “no visible tumor” and “few visible tumors”, respectively.
